Test results published in ChEMBL document CHEMBL1148902, “A cytotoxic cyclic heptapeptide from the seeds of Annona cherimola” (J Nat Prod, 2004).
Where a SMILES comes first, the peptide text is derived from it.

Test system: KB
Experiment: Cytotoxicity against human KB cells
Assay type: functional, cell-based

| SMILES | IC50 |
| --- | --- |
| CC[C@H](C)[C@@H]1NC(=O)[C@H](Cc2c[nH]c3ccccc23)NC(=O)[C@H](C)NC(=O)[C@H](C)NC(=O)CNC(=O)[C@@H]2CCCN2C(=O)[C@@H]2CCCN2C1=O [CHERIMOLACYCLOPEPTIDE C] (cyclo(AAWIPPG)) | 72 nM |
| COc1cccc2c1C(=O)c1c(O)c3c(c(O)c1C2=O)C[C@@](O)(C(=O)CO)C[C@@H]3O[C@H]1C[C@H](N)[C@H](O)[C@H](C)O1 [DOXORUBICIN] | 20 nM |
